Measured values from article PMC9413440, “An Iterative Approach Guides Discovery of the FabI Inhibitor Fabimycin, a Late-Stage Antibiotic Candidate with In Vivo Efficacy against Drug-Resistant Gram-Negative Infections” (ACS Central Science, 2022).
Values after ≈ are worked out from the molar mass of the structure shown.

Experiments:
E. coli FabI = molecular target: T1, E. coli FabI (Escherichia coli, UniProt P0AEK4); test: In vitro FabI enzymatic inhibition assay; assay type: biochemical; settings: for Ki: EcFabI, Morrison's quadratic fit, 5 nM enzyme, read-out: Ki app
T1 construct: His(6) with TEV site (cleaved yes); made in house; host or cells: E. coli BL21(DE3)
T1 sequence (P0AEK4 whole entry): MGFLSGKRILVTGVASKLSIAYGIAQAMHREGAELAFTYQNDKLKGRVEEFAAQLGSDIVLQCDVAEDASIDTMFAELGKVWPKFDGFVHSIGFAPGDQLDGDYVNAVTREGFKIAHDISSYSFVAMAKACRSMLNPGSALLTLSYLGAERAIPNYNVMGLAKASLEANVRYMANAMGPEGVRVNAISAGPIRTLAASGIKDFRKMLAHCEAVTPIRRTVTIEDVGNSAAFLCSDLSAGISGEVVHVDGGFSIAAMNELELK
Experimental: (§1) supplemented with 100 µg/mL ampicillin at 37°C until OD600 reached 0.6-0.7. The cells were induced with 1mM IPTG and incubated for 20 hours at 18°C and spun down at 8000 rpm for 15 minutes. Cell pellet was resuspended in the lysis buffer (50 mM Tris-HCl pH 8.0, 500 mM Na Cl, 20 mM imidazole, 10% glycerol, 0.5 mM TCEP, protease inhibitor and Lysonase) and passed through microfluidizer followed by centrifugation and filtration to remove cell debris. The clarified lysate was supplemented with 20 mM imidazole and passed over a HisTrap column (Cytiva) pre-equilibrated with the wash buffer (50 mM Tris-HCl pH 8.0, 500 mM NaCl, 20 mM imidazole, 10% glycerol, 0.5 mM TCEP). The column was washed with the wash buffer and eluted over a 20-500 mM imidazole gradient. The appropriate fractions were pooled, and the histidine tag was removed by TEV cleavage. The protein mixture was passed over a HisTrap column to separate the cleaved protein from the uncleaved ones. The cleaved protein was pooled and passed over an S75 size exclusion column (GE LifeSciences) pre-equilibrated with 50 mM Tris-HCl pH 8.0, 500 mM NaCl, 0.5 mM TCEP and 10% glycerol. Fractions containing pure protein were pooled, concentrated at 10 mg/mL and stored at -80°C. […]
(§2) In vitro FabI enzymatic inhibition assay
(§3) Recombinant E. coli and A. baummani FabI enzymes were used in a continuous NADH absorbance assay (20 µL in 384w format). Compounds and the Crotonyl-CoA substrate (Sigma–Aldrich 28007) were dispensed into a plate (GeinerBio-One 781101). The reaction was initiated by the addition of a reaction master mix solution containing enzyme and NADH (Sigma–Aldrich N8129) suspended in reaction buffer (50 mM HEPES pH 7.4, 150 mM NaCl, 1 mM EDTA, 0.01 mg/mL BSA, 0.01% Tween). Final concentrations were 5 nM enzyme, 150 μM Crotonyl-CoA, 380 μM NADH, 0.05% DMSO in 1x reaction buffer. After shaking for 5 seconds the reaction was monitored at NADH absorbance (340nm, 25°C) using a Molecular Devices SpectraMax M5 microplate reader. The linear portion of the progress curve was fit using plate-reader software. Percentage activity was calculated relative to DMSO only and no-substrate controls in each plate and the data were fit to Morrison’s quadratic using Graphpad Prism 9.3 to obtain apparent inhibition constant (Ki app) values. […]
(§4) 480 Real-Time PCR System as a function of a temperature ramp (25-95°C; 0.1°/s) and the Tm was calculated using the […]

A. baumannii FabI = A. baumannii FabI (Acinetobacter baumannii, UniProt D0CAD5); test: In vitro FabI enzymatic inhibition assay; assay type: biochemical; settings: AbFabI; Morrison's quadratic fit; 5 nM enzyme; read-out: Ki app
A. baumannii FabI, sequence (D0CAD5 entry or part of it): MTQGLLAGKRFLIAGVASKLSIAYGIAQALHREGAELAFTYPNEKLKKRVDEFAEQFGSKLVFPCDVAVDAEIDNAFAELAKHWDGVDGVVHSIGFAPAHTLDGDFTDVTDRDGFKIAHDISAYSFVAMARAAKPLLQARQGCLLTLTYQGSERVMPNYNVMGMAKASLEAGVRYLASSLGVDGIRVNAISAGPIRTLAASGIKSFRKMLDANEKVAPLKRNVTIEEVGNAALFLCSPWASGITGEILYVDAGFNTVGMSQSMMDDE
Experimental: as §1, §2, §3, §4

E. coli ΔtolC (JW5503) = test: MIC, broth microdilution (CLSI); assay type: cell-based, Escherichia coli
Experimental: (§5) II. Materials and Methods for Biological Experiments
(§6) S. aureus ATCC 29213 and E. coli MG1655 were obtained from the American Type Culture Collection (ATCC). E. coli BW25113 and E. coli JW5503 were obtained from the Keio Collection. AR-bank strains were obtained from the Centers for Disease Control and Prevention and FDA Antibiotic Resistance Isolate Bank.
(§7) Antimicrobial susceptibility tests
(§8) Susceptibility testing was performed in biological triplicate, unless noted otherwise, using the micro-dilution broth method as outlined by the Clinical and Laboratory Standards Institute. Bacteria were cultured with cation-adjusted Mueller Hinton broth (Sigma Aldrich, catalogue number: 90922). […]
(§9) NH3: m/z 391.2 → 171.0. Fabimycin: m/z 405.3 → 145.3. Power analysis was not used to determine the number of replicates. Error bars represent the standard error of the mean of three biological replicates. All compounds evaluated in biological assays were ≥95% pure.

K. pneumoniae AR-0113 = test: MIC, broth microdilution (CLSI); assay type: cell-based; settings: Klebsiella pneumoniae, AR0113; K. pneumoniae AR-0113 clinical isolate
Experimental: as §5, §6, §7, §8
(§10) Error bars represent the standard error of the mean of three biological replicates. All compounds evaluated in biological assays were ≥95% pure.

A. baumannii AR-0313 = test: MIC, broth microdilution (CLSI); assay type: cell-based; settings: Acinetobacter baumannii, AR0313; A. baumannii AR-0313 clinical isolate; † = dose-independent trailing growth
Experimental: as §5, §6, §7, §8, §10

E. coli MG1655 = test: MIC, broth microdilution (CLSI); assay type: cell-based; settings: Escherichia coli
Experimental: as §5, §6, §7, §8, §9

K. pneumoniae AR-0560 = test: MIC, broth microdilution (CLSI); assay type: cell-based; settings: Klebsiella pneumoniae, AR0560; K. pneumoniae AR-0560 clinical isolate
Experimental: as §5, §6, §7, §8, §9

A. baumannii AR-0033 = test: MIC, broth microdilution (CLSI); assay type: cell-based; settings: Acinetobacter baumannii, AR0033; A. baumannii AR-0033 clinical isolate; † = dose-independent trailing growth
Experimental: as §5, §6, §7, §8, §9

A. baumannii AR-0299 = test: MIC, broth microdilution (CLSI); assay type: cell-based; settings: Acinetobacter baumannii, AR0299; A. baumannii AR-0299 clinical isolate; † = dose-independent trailing growth
Experimental: as §5, §6, §7, §8, §9

E. coli AR-0085 = test: MIC, broth microdilution (CLSI); assay type: cell-based; settings: Escherichia coli, AR0085; E. coli AR-0085 clinical isolate
Experimental: as §5, §6, §7, §8, §9

K. pneumoniae BAA-2472 = test: MIC, broth microdilution (CLSI); assay type: cell-based; settings: Klebsiella pneumoniae, BAA2472
Experimental: as §5, §6, §7, §8, §9

A. baumannii AR-0273 = test: MIC, broth microdilution (CLSI); assay type: cell-based; settings: Acinetobacter baumannii, AR0273; A. baumannii AR-0273 clinical isolate
Experimental: as §5, §6, §7, §8, §9

E. coli AR-0048 = test: MIC, broth microdilution (CLSI); assay type: cell-based; settings: Escherichia coli, AR0048; E. coli AR-0048 clinical isolate
Experimental: as §5, §6, §7, §8, §9

S. aureus ATCC 29213 = test: MIC, broth microdilution (CLSI); assay type: cell-based; settings: Staphylococcus aureus, ATCC29213; S. aureus 29213
Experimental: as §5, §6, §7, §8, §9

K. pneumoniae AR-0066 = test: MIC, broth microdilution (CLSI); assay type: cell-based; settings: Klebsiella pneumoniae, AR0066; K. pneumoniae AR-0066 clinical isolate
Experimental: as §5, §6, §7, §8, §9

| SMILES | Ki (E. coli FabI) [nM] | Ki (A. baumannii FabI) [nM] | MIC (E. coli ΔtolC (JW5503); Escherichia coli) [µg/mL] | MIC (K. pneumoniae AR-0113) [µg/mL] | MIC (A. baumannii AR-0313) [µg/mL] | MIC (E. coli MG1655) [µg/mL] | MIC (K. pneumoniae AR-0560) [µg/mL] | MIC (A. baumannii AR-0033) [µg/mL] | MIC (A. baumannii AR-0299) [µg/mL] | MIC (E. coli AR-0085) [µg/mL] | MIC (K. pneumoniae BAA-2472) [µg/mL] | MIC (A. baumannii AR-0273) [µg/mL] | MIC (E. coli AR-0048) [µg/mL] | MIC (S. aureus ATCC 29213) [µg/mL] | MIC (K. pneumoniae AR-0066) [µg/mL] | difference in potency between fabimycin and (R)-7 against purified E. coli FabI (E. coli FabI; fabimycin relative to (R)-7) [fold] | MIC (E. coli ΔtolC (JW5503); E. coli ΔtolC = JW5503, efflux-deficient) [µg/mL] |
| --- | --- | --- | --- | --- | --- | --- | --- | --- | --- | --- | --- | --- | --- | --- | --- | --- | --- |
| Cc1c(CN(C)C(=O)/C=C/c2cnc3c(c2)CC[C@@H](N)C(=O)N3)oc2ccccc12 [(R)-7] | 38 ± 4 | 109 ± 14 | 0.5 (≈ 1.24 µM) | > 128 | > 128 | 64 (≈ 158 µM) | > 128 | > 128 | > 128 | 128 (≈ 316 µM) | > 128 | > 128 | 128 (≈ 316 µM) | 0.125 (≈ 0.309 µM) | > 128 | – | – |
| Cc1c(CN(C)C(=O)/C=C/c2cnc3c(c2)CCCC(=O)N3)oc2ccccc12 [compound 10] | 131 ± 22 | 487 ± 101 | 0.031 (≈ 0.0796 µM) | 32 (≈ 82.2 µM) | 16 (≈ 41.1 µM) | 8 (≈ 20.5 µM) | > 32 | 16 (≈ 41.1 µM) | 16 (≈ 41.1 µM) | 8 (≈ 20.5 µM) | 16 (≈ 41.1 µM) | 16 (≈ 41.1 µM) | 8 (≈ 20.5 µM) | 0.002 (≈ 0.00514 µM) | 32 (≈ 82.2 µM) | – | – |
| Cc1c(CN(C)C(=O)/C=C/c2cnc3c(c2)CC[C@H](N)C(=O)N3)oc2ccccc12 [fabimycin] | 8 ± 2 | 17 ± 3 | – | 4 (≈ 9.89 µM) | 4 (≈ 9.89 µM) | 2 (≈ 4.94 µM) | 4 (≈ 9.89 µM) | 4 (≈ 9.89 µM) | 2 (≈ 4.94 µM) | 1 (≈ 2.47 µM) | 4 (≈ 9.89 µM) | 4 (≈ 9.89 µM) | 2 (≈ 4.94 µM) | 0.004 (≈ 0.00989 µM) | 4 (≈ 9.89 µM) | 4.75 | 0.016 (≈ 0.0396 µM) |
